The values below come from ChEMBL document CHEMBL1154149, “Antimalarial pharmacodynamics of chalcone derivatives in combination with artemisinin against Plasmodium falciparum in vitro” (Eur J Med Chem, 2009).

The test system of assay [1] is Plasmodium falciparum. Briefly: Antiplasmodial activity against chloroquine-sensitive Plasmodium falciparum 3D7 infected in type B+ human erythrocytes assessed as reduction of hemozoin formation at IC50 after 48 hrs relative to control. The class given is functional. More on the design: scale not given: the % may be the effect or the level left.
Assay [2] concerns Plasmodium falciparum. The assay can be described thus: Antiplasmodial activity against chloroquine-sensitive Plasmodium falciparum 3D7 infected in type B+ human erythrocytes assessed as inhibition of sorbitol-induced hemolysis at 5 nM after 15 min by spectrophotometry. The class given is functional. Details: scale not given: the % may be the effect or the level left.
The test system of assay [3] is Plasmodium falciparum. The assay can be described thus: Antiplasmodial activity against chloroquine-sensitive Plasmodium falciparum 3D7 infected in type B+ human erythrocytes assessed as inhibition of parasitemia after 48 hrs by Giemsa staining. The assay is classed as functional, organism-based. The settings on record: 3D7, 48 h.
Assay [4] relates to Plasmodium falciparum. The assay can be described thus: Antiplasmodial activity against chloroquine-sensitive Plasmodium falciparum 3D7 infected in type B+ human erythrocytes assessed as inhibition of trophozoite stage parasite after 18 hrs followed by incubation in drug-free medium for 48 hrs by stage specific inhibition assay relative to control. The assay is classed as functional.

Assay [5] has as its system Plasmodium falciparum. Briefly: Antiplasmodial activity against chloroquine-sensitive Plasmodium falciparum 3D7 infected in type B+ human erythrocytes assessed as inhibition of ring stage parasite after 18 hrs followed by incubation in drug-free medium for 48 hrs by stage specific inhibition assay relative to control. The class given is functional.
Assay [6] has as its system Plasmodium falciparum. The assay can be described thus: Antiplasmodial activity against chloroquine-sensitive Plasmodium falciparum 3D7 infected in type B+ human erythrocytes assessed as inhibition of sorbitol-induced hemolysis at 10 mM after 15 min by spectrophotometry. The assay is classed as functional. More on the design: scale not given: the % may be the effect or the level left.

Assay [7] deals with Plasmodium falciparum. Briefly: Antiplasmodial activity against chloroquine-sensitive Plasmodium falciparum 3D7 infected in type B+ human erythrocytes assessed as inhibition of schizont stage parasite after 12 hrs followed by incubation in drug-free medium for 48 hrs by stage specific inhibition assay relative to control. The class given is functional.
Assay [8] deals with Plasmodium falciparum. The assay can be described thus: Antiplasmodial activity against chloroquine-sensitive Plasmodium falciparum 3D7 infected in type B+ human erythrocytes assessed as inhibition of sorbitol-induced hemolysis at 10 uM after 15 min by spectrophotometry. More on the design: scale not given: the % may be the effect or the level left. The class given is functional.

The subject of assay [9] is Plasmodium falciparum. The assay can be described thus: Antiplasmodial activity against chloroquine-sensitive Plasmodium falciparum 3D7 infected in type B+ human erythrocytes assessed as inhibition of sorbitol-induced hemolysis at 10 nM after 15 min by spectrophotometry. The class given is functional. Details: scale not given: the % may be the effect or the level left.

With `C[C@@H]1CC[C@H]2[C@@H](C)C(=O)O[C@@H]3O[C@@]4(C)CC[C@@H]1[C@]32OO4` [ARTEMISININ], the Activity in [1] worked out at 48.3%; in assay [2] it was 90.9%. In addition, in [3], the concentration for half-maximal inhibition (IC50) stood at 4 nM.
Turning to `C=CC(C)(C)c1cc(/C=C/C(=O)c2ccc(O)cc2)c(OC)cc1O` [LICOAGROCHACONE A], the IC50 in assay [3] was found to be 4.2 nM.
As to `O=C(/C=C/c1ccc(Cl)cc1)c1ccc(-n2cccc2)cc1`, the “inhibition (INH)” value in [4] was 61.5%; in assay [5] it was 51.4%; in assay [7] it was 48.9%. Besides, the Activity in [1] was found to be 48.8%; in [6], 85.9%.
Regarding `NS(=O)(=O)c1cc(C(=O)O)c(NCc2ccco2)cc1Cl` [FUROSEMIDE], in assay [8], the Activity turned out to be 56.3%.
For `O=C(/C=C/c1ccc(Cl)cc1)c1ccc(-n2nnc3ccccc32)cc1`, the “inhibition (INH)” value in assay [4] is recorded as 70.9%; in assay [5], 47.9%; in [7] it was 41%. For the same compound, the values for the Activity in assay [1] and in assay [6] were 47.7% and 90%, respectively.
Regarding `CCc1nc(N)nc(N)c1-c1ccc(Cl)cc1` [PYRIMETHAMINE], the Activity is 56.3% in [1] and 92.2% in assay [9].
Consider `O=C(/C=C/c1ccc(Cl)cc1)c1ccc(-n2cncn2)cc1`, for which the figures for the “inhibition (INH)” value in assay [4], in assay [5] and in assay [7] were 65.8%, 48.7% and 40.1%, respectively. In addition, the Activity is listed as 47.8% in assay [1] and 36.1% in assay [6].
